Values after ≈ are worked out from the molar mass of the structure shown. Read-outs that look alike come from different tables or passages of the source. Residues, ends and D or L forms follow the SMILES beside them.
Tests used:
[1] = hGH stability in HEC gel at 32° C. (RP, SEC, IE HPLC); format: physicochemical; settings: for hGH remaining intact: HEC gel, 32° C., after 6 hours
Procedure: A sufficient quantity of His-Gly from BACHEM Bioscience was added to distilled water to make a 12.5 mM buffer solution having a pH of 6.75. A human growth hormone (hGH) formulation obtained from BresaGen contained growth hormone, mannitol and glycine in the following proportions: 1:5:1 (w/w). The original hGH formulation was subjected to purification (diafiltration against 12.5 mM His-Gly buffer to remove the mannitol and glycine) and the hGH concentration was adjusted to about 20 mg/ml via ultrafiltration.
Aliquots of 250 μl of the resulting hGH stock solution were placed into Eppendorf tubes, each containing 5 mg (2%) of hydroxyethyl cellulose (HEC) as a gelling agent and the samples were carefully mixed. After gelation, the samples were tested for stability at body temperature. The samples were warmed to 32° C. (ie, skin temperature) and assayed at 0, 1, 2, 3, 4, 5, and 6 hours to determine the percent of hGH remaining intact in the gel. hGH from the gels was extracted by dissolving the gel in 25 ml of His-Gly buffer. All hGH samples were analyzed by reverse-phase high performance liquid chromatography (RP), size-exclusion high performance liquid chromatography (SEC), and ion-exchange high performance liquid chromatography (IE) to determine percentage of intact hGH remaining (%LS in FIG. 9). The percent of hGH remaining was calculated by measuring the concentration of the hGH (as determined using one of three high performance liquid chromatography methods) and dividing that by the initial hGH concentration.
As a comparison, hGH stability studies were run under identical conditions to those described above, except histidine buffer was substituted for His-Gly.

[2] = Conductivity of dipeptides at their pI; format: physicochemical
Source text: (§1) Table 1 lists conductivities and solubilities of selected dipeptides useful in the present invention, at their pI.

[3] = Solubility of dipeptides at their pI; format: physicochemical
Source text: as §1

[4] = pKa, pI and charge distribution of buffers
Source text: At the pI, three species coexist.
In an electric field these negative species move in the opposite direction of their positive associated counterions.
Choice of the dipeptide buffer will be on a case-by-case basis depending on the drug compound and the desired level of pH control and conductivity of the formulation.

[5] = In vivo iontophoresis, pH control of anodic and cathodic buffer gels (Example 2); parameters: species or system hairless guinea pigs; Ionic strength (approx.): unit not given here; settings: for Anodic pH after 5 h electrotransport / Cathodic pH after 5 h electrotransport: 0.1 mA/cm^2
Procedure: In vivo iontophoresis experiments were performed using custom built electrotransport systems. […] This formulation was separated from the anode electrode by a Sybron ion exchange membrane. […] The cathode-compartment comprised a skin-contacting gel containing the aqueous solution of the buffering agent at the indicated concentration and 3% HEC. This formulation was separated from the cathode electrode by a Nafion ion exchange membrane. […] The electrodes were connected to a DC power source which supplied a constant level of electric current of 0.1 mA/cm^2. Experiments were performed in vivo in hairless guinea pigs. Three animals were used for each condition studied. The electrotransport systems were applied to and removed from the flank of the animals. The two reservoirs were generally spaced about 5 cm apart. The application site was wiped with water prior to system application. pH of the gels was measured prior to application and after removal of the systems using a HORIBA compact pH […]).

[6] = Donor reservoir gel pH during electrotransport of DECAD (Example 3); format: in vivo, hairless guinea pigs
Procedure: The effect of the zwitterionic buffer Gly-His at pH 7.5 (pI) on the transdermal delivery of a synthetic radiolabeled decapeptide (DECAD) in the hairless guinea pig was evaluated. […] At pH 7.5 the net charge of DECAD is about +1.6.
The electrodes were connected to a DC power source which supplied a constant level of electric current of 0.100 mA/cm2. The anodic reservoir comprised a skin-contacting gel containing the aqueous solution of the buffering agent and DECAD at the indicated concentrations and 3% hydroxyethyl cellulose (HEC) as well as 10% cholestyramine, a high molecular weight resin in chloride salt form which contributes chloride ions into the donor solution without introducing mobile cations which compete with the DECAD for delivery into the animal. The chloride ions from the cholestyramine resin are provided to react with any silver ions which are generated by electrochemical oxidation of the silver foil anode, thereby removing silver cations (ie, as potentially competing with the DECAD cations) from the donor solution. The cathodic reservoir contained a 0.15 M aqueous solution of sodium chloride in an HEC gel.
Experiments were performed in vivo in hairless guinea pigs. Three animals were used for each condition studied. The electrotransport systems were applied to and removed from the flank of the animals. The two reservoirs were generally spaced about 5 cm apart. The application site was wiped with water prior to system application. […] Donor reservoir gel pH was measured prior to application and after removal of the systems using a HORIBA compact pH meter (Cardy).

[7] = pH stability of formulations with TMAB or SMS during electrotransport (Example 4); format: in vivo, hairless guinea pigs
Source text: The effect of the zwitterionic buffer Gly-His and His-Glu on pH stability of formulations containing small molecular weight drug-like compounds during electrotransport to hairless guinea pigs was studied. Trimethylammonium bromide (TMAB) was used as the cationic model drug and sodium methanesulfate (SMS) was used as the model anionic drug.
The electrodes were connected to a DC power source which supplied a constant level of electric current of 0.100 mA/cm^2. The anodic electrode assembly comprised a skin-contacting gel containing the aqueous solution of His-Glu 66 mM or Gly-His 45 mM and TMAB at 50 mM and 3% HEC. This formulation was separated from the silver anode by a Sybron ion exchange membrane. A gel containing 0.15 M sodium chloride (which acted as a chloride source) was placed between the silver anode and the ion exchange membrane. The cathodic electrode assembly comprised a skin-contacting gel containing the aqueous solution of His-Glu 66 mM or Gly-His 45 mM and SMS 50 mM and 3% HEC. The cathodic gel reservoir was separated from the silver chloride cathode by a Nafion ion exchange membrane. A gel containing 0.1 5M sodium chloride was placed between the cathode and the ion exchange membrane. The ionic strength of the skin-contacting gels was 60 mM.
Experiments were performed in vivo in hairless guinea pigs. Two animals were used for each condition studied. The electrotransport systems were applied to and removed from the backs of the animals. The two reservoirs were generally spaced about 5 cm apart. The application site was wiped with 70% isopropyl alcohol wipes prior to system application. Donor reservoir gel pH was measured prior to application and after removal of the systems using a HORIBA compact pH meter (Cardy).

[8] = His-Gly buffered hGH gel stored at 32° C.
[9] = Gly-His 10 mM, DECAD 5 mM, wearing time 5 h
[10] = Gly-His 30 mM, DECAD 5 mM, wearing time 5 h
[11] = Gly-His 100 mM, DECAD 0.5 mM, wearing time 5 h
[12] = Gly-His 100 mM, DECAD 5 mM, wearing time 5 h
[13] = Gly-His 100 mM, DECAD 5 mM, wearing time 24 h
[14] = Gly-His 250 mM, DECAD 5 mM, wearing time 5 h

hGH: human growth hormone formulation obtained from BresaGen, diafiltered against buffer, about 20 mg/ml in 2% HEC gel
hGH remaining intact ([1]; His-Gly buffer 12.5 mM): about 80% | degradation products [1, 8]: No extra degradation products were discovered | loss of protein through degradation [1, 8]: no significant loss of protein through degradation | hGH remaining intact ([1]; histidine buffer): approximately 50%

NCC(=O)N[C@@H](Cc1cnc[nH]1)C(=O)O [Gly-His] (H-Gly-His-OH)
Conductivity at 10^−2 Molar [2]: 52 μS/cm | Solubility [3]: 1000 mM (≈ 212 mg/mL) | pI [4]: 7.55 | pka A [4]: 2.42 | pI ([4]; Table 1): 7.55 | pI ([4]; Table 2): 7.55 | species presenting a net charge (salt form) at the pI ([4]; at pI): 30% | neutral species at the pI ([4]; at pI, net charge of zero): 70% | % salt ([4]; fraction of dipeptide carrying a net charge in aqueous solution at pH equal to pI): 22% | net charge at pH 7.5 ([4]; pH 7.5): essentially zero | pH after 24 h electrotransport ([5]; Anode): 7.2 | pH after 24 h electrotransport ([5]; Cathode, listed as Gly-His 100 mM): 7.3 | pH after 24 h electrotransport ([5]; Cathode, listed as Gly-His 250 mM): 7.0 | Ionic strength (approx.) ([5]; Table 3, anodic buffer gel, listed as Gly-His 30 mM): ~0.007 | Ionic strength (approx.) ([5]; Table 3, anodic buffer gel, listed as Gly-His 100 mM): ~0.02 | Ionic strength (approx.) ([5]; Table 3, anodic buffer gel, listed as Gly-His 250 mM): ~0.06 | Ionic strength (approx.) ([5]; Table 4, cathodic buffer gel, listed as Gly-His 100 mM): ~0.02 | Ionic strength (approx.) ([5]; Table 4, cathodic buffer gel, listed as Gly-His 250 mM): ~0.06 | Initial pH ([5]; Table 5, Anode, listed as Gly-His 100 mM): 7.3 | Initial pH ([5]; Table 5, Anode, listed as Gly-His 250 mM): 7.2 | Initial pH ([5]; Table 5, Cathode, listed as Gly-His 100 mM): 7.6 | Initial pH ([5]; Table 5, Cathode, listed as Gly-His 250 mM): 6.9 | Anodic pH after 5 h electrotransport ([5]; anodic gel, listed as Gly-His 30 mM): 7.0 | Anodic pH after 5 h electrotransport ([5]; anodic gel, listed as Gly-His 100 mM): 7.3 | Anodic pH after 5 h electrotransport ([5]; anodic gel, listed as Gly-His 250 mM): 7.3 | Initial pH ([5]; anodic gel, prior to application, listed as Gly-His 30 mM): 7.1 | Initial pH ([5]; anodic gel, prior to application, listed as Gly-His 100 mM): 7.4 | Initial pH ([5]; anodic gel, prior to application, listed as Gly-His 250 mM): 7.4 | Cathodic pH after 5 h electrotransport ([5]; cathodic gel, listed as Gly-His 100 mM): 7.3 | Cathodic pH after 5 h electrotransport ([5]; cathodic gel, listed as Gly-His 250 mM): 7.4 | Initial pH ([5]; cathodic gel, prior to application, listed as Gly-His 100 mM): 7.6 | Initial pH ([5]; cathodic gel, prior to application, listed as Gly-His 250 mM): 7.5 | pH control of electrotransport formulations ([5]; electrotransport experiments in animals, at their pI, for several hours): capable of assuring pH control | pH control of a cathodic electrotransport formulation ([5]; for at least 5 hours, dipeptides at their pI): capable of assuring pH control | pH control of an anodic electrotransport formulation ([5]; for several hours, dipeptides at their pI): capable of assuring pH control | pH control of anodic and cathodic electrotransport formulations ([5]; for up to 24 hours, at their pI): capable of assuring pH control | Final pH [6, 9]: 7.0 | Initial pH [6, 9]: 6.9 | Final pH [6, 10]: 7.0 | Initial pH [6, 10]: 7.1 | Final pH [6, 11]: 7.2 | Initial pH [6, 11]: 7.3 | Final pH [6, 12]: 7.3 | Initial pH [6, 12]: 7.4 | Final pH [6, 13]: 7.3 | Initial pH [6, 13]: 7.4 | Final pH [6, 14]: 7.3 | Initial pH [6, 14]: 7.4 | pH control with DECAD ([6]; all experimental conditions tested (Table 6)): capable of assuring pH control | Final pH ([7]; Anode, drug TMAB 50 mM): 6.9 | Initial pH ([7]; Anode, drug TMAB 50 mM): 7.4 | Final pH ([7]; Cathode, drug SMS 50 mM): 7.9 | Initial pH ([7]; Cathode, drug SMS 50 mM): 7.5 | pH control with TMAB or SMS ([7]; all experimental conditions tested (Table 7)): good pH control

From US20070078096A1, “Buffered drug formulations for transdermal electrotransport delivery” (priority 1997, published 2007)
